The values below come from patent US11274079B2 (DALIAN INSTITUTE OF CHEMICAL PHYSICS, CHINESE ACADEMY OF …, priority 2018, dated 2022).

One may read the IC50 as the concentration at which inhibition is half-maximal.

The target in one assay is T1, M1 receptor (Homo sapiens, UniProt P11229).
T1 construct: expressed in transfected cells; host or cells: CHO-K1
T1 sequence (P11229 1-460): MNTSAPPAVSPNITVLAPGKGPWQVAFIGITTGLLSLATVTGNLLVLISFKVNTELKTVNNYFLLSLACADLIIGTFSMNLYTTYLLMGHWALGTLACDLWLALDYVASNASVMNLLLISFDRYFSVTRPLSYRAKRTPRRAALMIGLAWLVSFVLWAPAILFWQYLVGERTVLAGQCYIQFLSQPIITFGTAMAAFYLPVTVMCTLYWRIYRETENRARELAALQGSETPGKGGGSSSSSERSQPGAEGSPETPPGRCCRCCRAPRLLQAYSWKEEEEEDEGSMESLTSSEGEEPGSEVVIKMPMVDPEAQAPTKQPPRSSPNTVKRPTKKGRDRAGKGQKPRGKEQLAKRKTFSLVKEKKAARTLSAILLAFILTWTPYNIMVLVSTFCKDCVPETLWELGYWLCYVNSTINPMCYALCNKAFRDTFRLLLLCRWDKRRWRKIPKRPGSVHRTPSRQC
Kind of assay: DMR assay, antagonism of acetylcholine in CHO-K1 cells stably transfecting the M1 receptor. The conditions noted are these: CHO-K1-M1 cells, DMR, acetylcholine 1 μM, 1 h pretreatment, time point 5 min. The class given is cell-based. As for the experimental part:
(§1) The present invention relates to the antagonistic activity of the compound against the muscarinic receptor, which is primarily assessed by a cell-level dynamic mass redistribution (DMR) assay method. All tests are carried out on Epic platform, wherein the target model of the muscarinic receptor M1 is the CHO-K1 ceil model stably transfecting the M1 receptor, the target model of M3 is the HT-29 cell model endogenously highly expressing the M3 receptor, and the selected probe molecule is acetylcholine. Tire probe molecule acetylcholine is dissolved in water, while all other compounds are dissolved in DMSO.
The inoculated cell plate is placed in a cell incubator for culture for 12 h until the cell growth and fusion degree reaches about 95%, and the activity assay is carried out. The culture medium is sucked from the cultured ceils, the buffer salt specified by the test is added with a volume of 30 μL per orifice and is stabilized for 1 h. After the baseline is stable, a 2-min baseline is established, and different concentrations of compounds to be tested are added to test the cultured cells for 1 h. After the cells are pretreated with the compounds to be tested for 1 h, the 2-min baseline is re-established, and acetylcholine having a concentration of 1 μM is added to test the cultured cells for 1 h.

A further assay concerns the target T2, M3 receptor (Homo sapiens, UniProt P20309).
T2 construct: HT-29 cell model endogenously highly expressing the M3 receptor; endogenous in cells; host or cells: HT-29
Kind of assay: DMR assay, antagonism of acetylcholine in HT-29 cells endogenously expressing the M3 receptor. In kind it is cell-based. The conditions noted are these: HT-29 cells, DMR, acetylcholine 16 μM, 1 h pretreatment, time point 30 min. The protocol:
as §1
The inoculated cell plate is placed in a cell incubator for culture for 20 h until the cell growth and fusion degree reaches about 95%, and the activity assay is carried out. The culture medium is sucked from the cultured cells, the buffer salt specified by the test is added with a volume of 30 μL per orifice and is stabilized for 1 h. After the baseline is stable, a 2-min baseline is established, and different concentrations of compounds to be tested are added to test the cultured cells for 1 h.

Another assay deals with guinea pigs. Kind of assay: Acetylcholine chloride/histamine spray-induced asthma, incubation period. In kind it is in vivo, guinea pig. The note with it: for asthma incubation period: 0.2 mM in normal saline sprayed 10 min, challenge after 10 min, recorded as 240 s if no convulsion and fall; for efficacy in asthma model, in words: 0.2 mM spray. As for the experimental part: On the first day, guinea pigs are placed in a 38×38×38 cm (about 55 L) of home-made container with an atomizing nozzle having a diameter of about 3 cm above the side wall. Ultrasonic atomizer (YUWELL, model 402AI) is used to spray normal saline containing acetylcholine chloride (20 g/L) and histamine (1 g/L) for 15 s. The incubation period of asthma of guinea pigs (also is called asthma incubation period, which is the time from the end of the spray to asthma attack, extreme breathing difficulty until convulsion and fall) is recorded after the cessation of spraying. Animals with an incubation period of less than 120 s are qualified sensitive animals.
2. Experimental Processes
On the second day, the qualified animals are selected for experiments, wherein one group (comprising 4 guinea pigs) is used as the control group, one group (comprising 4 guinea pigs) is experimented with positive medicine […] and one group (comprising 10 guinea pigs) is experimented with the drug to be tested. The animals are placed in a container, and sprayed with normal saline, tiotropium bromide and the compound to be tested. Both tiotropium bromide and the compound to be tested are soluble in normal saline at a concentration of 0.2 mM. After spraying for 10 min, the guinea pigs are taken out and put into another container of the same size. After 10 min, normal saline containing acetylcholine chloride (20 g/L) and histamine (1 g/L) is sprayed into the container for 15 s. The incubation periods of asthma of the guinea pigs are observed and recorded. If there is no convulsion and fall after 240 s, the incubation period is recorded as 240 s.

The subject of assay [1] is isolated tracheal smooth muscle. Kind of assay: Carbachol-induced contraction of isolated tracheal strip. The note with it: Cavia porcellus, read-out: IC50, diastolic effect on isolated tracheal smooth muscle.
From the text: 1. Experimental Materials
2. Preparation of Tracheal Strip
The guinea pig is put to death by hammering it on the head, the chest cavity is quickly opened, and trachea is carefully isolated. […] The connective tissue and fat around the trachea are gently removed, and the trachea segment is quickly suspended and cut into tracheal strips with a blade (2-3 mm in width and 20 mm in length). […] The upper end of the tracheal strip is connected to a muscle tension transducer, and the load is adjusted to 1.5 g. The biological signal processing system is used to record the changes in muscular tension of tracheal smooth muscle. The perfusate is replaced once every 15 min, and the experiment is started after the tension is stabilized for 1 h. After each experiment, the smooth muscle is rinsed 3 to 5 times, and the next experiment is carried out after stabilization to the baseline.
3. Effects of Compounds Tested on Contraction of Isolated Tracheal Strip in Guinea Pig
After incubation of isolated tracheal for 1 h, 10 μm/L of carbachol is added to induce the minimum concentration (the concentration obtained from the dose-effect curve of carbachol) of the maximum tracheal smooth muscle contraction, and the changes in tension of the tracheal strip within 5 min are recorded. When the tension of the tracheal smooth muscle reaches the highest point, the compounds tested with a concentration of 1 nm/L are added, and the changes in tension of the tracheal strip within 5 min are recorded. […] Then, the concentration difference is decreased, that is, the concentration is increased by three or four times to repeat the above administration, which makes the tension decrease continuously to the base value (initial load). The changes in tension of the tracheal stop within 5 min are recorded. The dose-effect relationship between the compounds tested and the contractile activity of the isolated tracheal smooth muscle in the guinea pig is obtained. The curve of the changes in tension of the tracheal smooth muscle in each group is recorded and the inhibition rate is calculated. After repeated experiments, IC50 value of each compound tested is calculated by taking points respectively.
The dose-effect relationship between solvent (DMSO) control group and the contractile activity of the isolated tracheal smooth muscle in the guinea pig is recorded. Inhibition Rate=(Tension before Administration−Tension after Administration)/Tension before Administration

T2 sequence (P20309 whole entry): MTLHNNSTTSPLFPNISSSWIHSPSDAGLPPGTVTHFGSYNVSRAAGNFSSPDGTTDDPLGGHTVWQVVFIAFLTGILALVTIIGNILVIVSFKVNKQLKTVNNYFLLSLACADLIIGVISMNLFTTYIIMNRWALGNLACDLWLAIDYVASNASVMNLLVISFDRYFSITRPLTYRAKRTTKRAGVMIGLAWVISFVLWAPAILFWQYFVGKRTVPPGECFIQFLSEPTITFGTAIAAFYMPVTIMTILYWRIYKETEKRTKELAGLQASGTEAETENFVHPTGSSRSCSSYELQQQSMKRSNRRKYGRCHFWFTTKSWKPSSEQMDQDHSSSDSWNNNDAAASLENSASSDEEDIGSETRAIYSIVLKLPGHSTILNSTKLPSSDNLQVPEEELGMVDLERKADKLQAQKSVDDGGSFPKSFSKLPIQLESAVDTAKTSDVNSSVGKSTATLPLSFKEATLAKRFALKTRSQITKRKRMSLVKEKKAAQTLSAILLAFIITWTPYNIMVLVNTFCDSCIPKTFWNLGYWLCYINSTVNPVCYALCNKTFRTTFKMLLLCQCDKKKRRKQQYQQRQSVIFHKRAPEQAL

For the molecule `C[N+]1(C)CCCCC1CC(c1ccccc1O)c1ccccc1O.[Br-]` (stereo not drawn) [I-3-2-Br, 2-[2,2-bis(2-hydroxy-phenyl)ethyl]-N,N-dimethylpiperidine Bromide], the 50% inhibitory concentration (IC50) on M1 receptor is 43.7 ± 15.3 nM. Also, the IC50 on M3 receptor is 11 ± 3.6 nM. In the assay with guinea pigs, the asthma incubation period came out at 233.1 ± 21.8 s and the “efficacy in asthma model, in words” value is reported as “good efficacy”.

With `C[N+]1(C)[C@@H]2C[C@@H](OC(=O)C(O)(c3cccs3)c3cccs3)C[C@H]1[C@@H]1O[C@@H]12.[Br-]` [Tiotropium Bromide, reference compound], the IC50 in assay [1] is 33 nM. The asthma incubation period with guinea pigs stood at 238.9 ± 5.0 s.

`C[N+]1(C)CCCCC1CC(c1ccccc1)c1ccccc1O.[Br-]` (stereo not drawn) [I-2a-1-Br, 2-[2-(2-hydroxy-phenyl)-phenethyl]-N,N-dimethylpiperidine Bromide]: the IC50 on M1 receptor turned out to be 8.8 ± 2.6 nM. Besides, the IC50 on M3 receptor was 5.7 ± 1.1 nM. Moreover, in the assay with guinea pigs, the asthma incubation period amounted to 228.9 ± 4.7 s and the “efficacy in asthma model, in words” value was “good efficacy”.

Regarding `C[N+]1(C)CCCCC1CC(c1ccccc1O)c1ccccc1O` (racemic) [I-3-Br, 2-[2,2-bis(2-hydroxy-phenyl)ethyl]-N,N-dimethylpiperidine Bromide], the results for the concentration for half-maximal inhibition (IC50) (at M1 receptor; in assay [1]; at M3 receptor) were 23.4 ± 6.6 nM, 4.1 nM and 15.4 ± 2.9 nM, respectively.

For the molecule `C[N+]1(C)CCCCC1CC(c1ccccc1)c1ccccc1O` (stereo not drawn) [I-2a-Br, 2-[2-(2-hydroxy-phenyl)-phenethyl]-N,N-dimethylpiperidine Bromide], the IC50 at M1 receptor was 53.8 ± 4.6 nM; in assay [1] it was 6.4 nM; on M3 receptor, 33.8 ± 3.6 nM.

As for `C[N+]1(C)CCCCC1CC(c1ccccc1O)c1ccccc1O.[Br-]` (stereo not drawn) [I-3-1-Br, 2-[2,2-bis(2-hydroxy-phenyl)ethyl]-N,N-dimethylpiperidine Bromide], the half-inhibitory concentration (IC50) at M1 receptor amounted to 18.5 ± 3.6 nM; at M3 receptor, 6 ± 1.1 nM. The molecule further gave an asthma incubation period with guinea pigs of 240 s. In the assay with guinea pigs, the “efficacy in asthma model, in words” value is on record as “good efficacy”.

On to `Cc1ccc(O)c(C(CC2CCCC[N+]2(C)C)c2ccccc2)c1` (single isomer, unassigned) [I-4a-Br, 2-[2-(2-hydroxy-5-methyl-phenyl)-phenethyl]-N,N-dimethylpiperidine Bromide], for which the IC50 is 36.2 ± 6.1 nM at M1 receptor, 13.3 nM in assay [1] and 35.5 ± 13.9 nM at M3 receptor.

As for `Cc1ccc(O)c(C(CC2CCCC[N+]2(C)C)c2ccccc2F)c1` (stereo not drawn) [I-7, 2-[2-(2-fluorophenyl)-2-(2-hydroxy-5-methyl-phenyl)-ethyl]-N,N-dimethylpiperidine Bromide], the IC50 at M1 receptor was determined as 320 ± 20 nM; in assay [1], 33.4 nM; at M3 receptor, 103 ± 10 nM.

`Cc1ccc(O)c(C(CC2CCCC[N+]2(C)C)c2ccccc2)c1.[Br-]` (stereo not drawn) [I-4a-1-Br, 2-[2-(2-hydroxy-5-methyl-phenyl)-phenethyl]-N,N-dimethylpiperidine Bromide]: the IC50 on M1 receptor is 28.8 ± 11.3 nM. Also, the IC50 on M3 receptor is 39.3 ± 10.9 nM. Also, in the assay on guinea pigs, the asthma incubation period is listed as 240 s and the “efficacy in asthma model, in words” value is on record as “good efficacy”.
